Reference: patent US9206124B2, “Treatment of drug-resistant cancer with 2-aryl-2-(3-indolyl) acetohydroxamates” (New Mexico Technical Research Foundation, priority 2013, dated 2015)
Like-named read-outs stand apart in the source and are kept apart here.

Tests used:
[1] = test system: MCF-7 breast adenocarcinoma cells; assay: MTT antiproliferative assay, MCF-7; format: cell-based; details: Homo sapiens, ± SD, read-out: cell viability GI50, MCF7
Description: (§1) This finding led to an exploration of the SAR analyses by synthesizing the first generation compounds 3 containing diverse substituents at different positions in the 2-aryl-2-(3-indolyl)acetohydroxamate skeleton and testing this series for in vitro growth inhibition using the MTT colorimetric assay against two cell lines, human HeLa cervical and MCF-7 breast adenocarcinomas (Table 1). It emerged from these experiments that the substitution on the benzene ring of the indole moiety (R^2≠H) was not tolerated (e.g., 3abfa and 3acfa), whereas the nitrogen could be derivatized (R^1≠H) with only a small activity drop (e.g., 3bafa vs 3aafa).
(§2) Human cancer cell lines were obtained from the American Type Culture Collection (ATCC, Manassas, Va., USA), the European Collection of Cell Culture (ECACC, Salisbury, UK) and the Deutsche Sammlung von Mikroorganismen and Zellkulturen (DSMZ, Braunschweig, Germany). Human cervical adenocarcinoma HeLa cells were cultured in DMEM supplemented with 10% fetal bovine serum (FBS). Human mammary carcinoma MCF-7 cells were cultured in RPMI supplemented with 10% FBS. The U87 cells (ATCC HTB-14) were cultured in DMEM culture medium, while the A549 cells (DSMZ ACC107) were cultured in RPMI culture medium supplemented with 10% heat-inactivated FBS. The glioblastoma multiforme Hs683 (ATCC HTB-138) and the T98G (ATCC CRL-1690) cell lines were cultivated in DMEM supplemented with 10% FBS. The Human uterine sarcoma MES-SA and MES-SA/Dx5 cells were cultured in RPMI-1640 medium supplemented with 10% FBS with MES SA/Dx5 maintained in the presence of 500 nM Doxorubicin (Sigma). SKMEL-28 cells (ATCC HTB72) and U373 glioblastoma cells (ECACC 08061901) were cultured in RPMI culture medium supplemented with 10% heat-inactivated FBS. Cell culture media were supplemented with 4 mM glutamine (Lonza code BE17-605E), 100 μg/mL gentamicin (Lonza code 17-5182), and penicillin-streptomycin (200 units/ml and 200 μg/ml) (Lonza code 17-602E). Neurosphere culture GBM 031810 was established using known methods and maintained in Neurobasal medium (Invitrogen Carlsbad, Calif.) with B27 supplement (20 ul/ml; Invitrogen), Glutamax (10 ul/ml; Invitrogen), fibroblast growth factor-2 (20 ng/ml; Peprotech, Rocky Hill, N.J., USA), epidermal growth factor (20 ng/ml; Peprotech), heparin (32 IE/ml; Sigma Aldrich, St. Louis, Mo.), and penicillin-streptomycin (1×, Invitrogen). Growth factors and heparin were renewed twice weekly. All cell lines were cultured in T25 flasks, maintained and grown at 37° C., 95% humidity, 5% CO2.
(§3) Antiproliferative properties of the synthesized compounds were evaluated by the MTT assay. All compounds were dissolved in DMSO at a concentration of either 100 mM or 50 mM prior to cell treatment. The cells were trypsinized and seeded at 4×10^3 cells per well into 96-well plates. The cells were grown for 24 h, treated with compounds at concentrations ranging from 0.001 to 100 μM and incubated for 48 h in 200 μL media. 20 μL of MTT reagent in serum free medium (5 mg/mL) was added to each well and incubated further for 2 h. Media was removed and the resulting formazan crystals were re-solubilized in 200 μL of DMSO. A490 was measured using a Molecular Devices Thermomax plate reader. The experiments were performed in quadruplicate and repeated at least twice for each compound per cell line. Cells treated with 0.1% DMSO were used as a negative control; 1 μM phenyl arsine oxide (PAO) was used as a positive control.

[2] = test system: HeLa cervical adenocarcinoma cells; assay: MTT antiproliferative assay, HeLa; format: cell-based; details: Homo sapiens, ± SD, read-out: cell viability GI50, HeLa
Description: as §1, §2, §3

[3] = test system: A549 non-small-cell-lung cancer cells; assay: MTT antiproliferative assay, A549; format: cell-based, human; details: FIG. 3; concentrations up to 100 μM
Experimental: (§4) As part of the ongoing efforts aimed at identification of compounds active against cancer cells displaying resistance to proapoptotic agents, the selected 2-aryl-2-(3-indolyl)-acetohydroxamates were evaluated for in vitro growth inhibition against a panel of additional cancer cell lines including those resistant to various proapoptotic stimuli, such as human T98G and U87 glioblastoma and human A549 non-small-cell-lung cancer (NSCLC), as well as an apoptosis-sensitive tumor model, such as human Hs683 anaplastic oligodendroglioma, used as a reference. The data reveal that for the most part these compounds retain the single-digit antiproliferatve GI50 values in this challenging cancer cell panel.
as §2, §3

U87 glioblastoma cells = assay: MTT antiproliferative assay, U87; format: cell-based, human; details: FIG. 3; concentrations up to 100 μM
Experimental: as §4, §2, §3

[4] = test system: MES-SA uterine sarcoma cells; assay: MTT antiproliferative assay, MES-SA; format: cell-based; details: Homo sapiens, 48 h treatment, ± SD, read-out: GI50 in vitro, MES-SA
Experimental: Compared with the intrinsic drug resistance, as described above for such cancers as glioblastoma and melanoma, a large variety of tumors can also develop resistance to anticancer drugs resulting in MDR as explained previously. To assess whether the hydroxamates can overcome this resistance mechanism, selected hydroxamates were tested against MDR cells (Table 4). The MDR uterine sarcoma cell line MES-SA/Dx5 was utilized for this experiment. This cell line was established from the parent uterine sarcoma MES-SA, grown in the presence of increasing concentrations of doxorubicin and known to be resistant to a number of P-gp substrates. […] In contrast, there was only a small variation in the sensitivities of the two cell lines towards the hydroxamates indicating their potential to overcome clinical multi-drug resistance.
as §2, §3

[5] = test system: MES-SA/Dx5 MDR uterine sarcoma cells; assay: MTT antiproliferative assay, MDR MES-SA/Dx5; format: cell-based, human
Experimental: Compared with the intrinsic drug resistance, as described above for such cancers as glioblastoma and melanoma, a large variety of tumors can also develop resistance to anticancer drugs resulting in MDR as explained previously. To assess whether the hydroxamates can overcome this resistance mechanism, selected hydroxamates were tested against MDR cells (Table 4). The MDR uterine sarcoma cell line MES-SA/Dx5 was utilized for this experiment. This cell line was established from the parent uterine sarcoma MES-SA, grown in the presence of increasing concentrations of doxorubicin and known to be resistant to a number of P-gp substrates.
as §2, §3
Selection of the MES-SA/Dx5 cell line was done according to W. G. Harker and B. I. Sikic, Cancer Res. 1985, p. 45, 4091. The cells were split and allowed to adhere overnight. […] The cells were maintained at this DOX concentration until their growth rate reached that of the untreated cells.

[6] = test system: HeLa cervical and MCF-7 breast adenocarcinomas; assay: In vitro growth inhibition (MTT); format: cell-based, human; details: HeLa and MCF-7
Description: as §1, §3

Structure (SMILES)	GI50 ([1]; MCF7, Table 2, 48 h treatment) [µM]	GI50 ([2]; Table 2, 48 h treatment) [µM]	GI50 ([1]; MCF7, Table 1, 48 h treatment) [µM]	GI50 ([2]; Table 1, 48 h treatment) [µM]	further results
COc1ccc(C(C(=O)NO)c2c(-c3ccc4ccccc4c3)[nH]c3ccccc23)cc1OC (centres unmarked) [Compound 3aaff]	2.4 ± 0.1	26.9 ± 0.3	–	–	–
Cn1c(-c2ccc3ccccc3c2)c(C(C(=O)NO)c2ccccc2)c2ccccc21 (centres unmarked) [Compound 3bafa]	–	–	10 ± 0.3	19.7 ± 1.7	–
O=C(NO)C(c1ccccc1)c1c(-c2cccc3ccccc23)[nH]c2ccccc12 (centres unmarked) [Compound 3aaea]	–	–	32 ± 0.9	25.7 ± 1.6	–
COc1cc([C@@H]2c3cc4c(cc3[C@H](O)[C@H]3COC(=O)[C@H]23)OCO4)cc(OC)c1OC [podophyllotoxin, reference compound]	–	–	–	–	cells whose proliferation is not affected, A549 [3]: ca. 50%; cells whose proliferation is not affected, U87 (U87 glioblastoma cells): ca. 50%
CC[C@]1(O)C[C@@H]2CN(CCc3c([nH]c4ccccc34)[C@@](C(=O)OC)(c3cc4c(cc3OC)N(C)[C@H]3[C@@](O)(C(=O)OC)[C@H](OC(C)=O)[C@]5(CC)C=CCN6CC[C@]43[C@@H]65)C2)C1 [Vinblastine, reference compound]	–	–	–	–	GI50 [4]: 0.006 ± 0.001 µM; GI50 ([5]; Homo sapiens, MES-SA/Dx5, 48 h treatment, MTT, ± SD, MDR line, read-out: GI50 in vitro, MES-SA/Dx5): 5 ± 1.4 µM; change in potency, MDR MES-SA/Dx5 versus parent MES-SA ([5]; MDR line compared with parent line): more than a thousand fold drop in potency
COc1ccc(-c2[nH]c3ccccc3c2C(C(=O)NO)c2ccccc2)cc1 (centres unmarked) [Compound 3aaca]	–	–	> 50	> 50	–
Cc1cccc(C(C(=O)NO)c2c(-c3ccc4ccccc4c3)[nH]c3ccccc23)c1 (centres unmarked) [Compound 3aafn]	7.4 ± 0.6	6.9 ± 0.4	–	–	antiproliferative potency (GI50) [6]: single-digit micromolar
O=C(NO)C(c1ccc(OC(F)(F)F)cc1)c1c(-c2ccc3ccccc3c2)[nH]c2ccccc12 (centres unmarked) [Compound 3aafj]	10.2 ± 0.1	27.4 ± 0.2	–	–	–
O=C(NO)C(c1ccccc1)c1c(-c2ccccc2)[nH]c2ccccc12 (centres unmarked) [Compound 3aaaa]	–	–	31 ± 0.6	23 ± 2.6	antiproliferative potency (GI50) [6]: double-digit micromolar
O=C(NO)C(c1ccccc1)c1c(-c2ccccc2[N+](=O)[O-])[nH]c2ccccc12 (centres unmarked) [Compound 3aaba]	–	–	> 50	> 50	–
Cn1c(-c2ccc3ccccc3c2)c(C(C(=O)NO)c2ccccc2Br)c2ccccc21 (centres unmarked) [Compound 3bafd]	–	–	11.2 ± 0.9	24 ± 0.2	–
COc1ccc2[nH]c(-c3ccc4ccccc4c3)c(C(C(=O)NO)c3ccccc3)c2c1 (centres unmarked) [Compound 3acfa]	–	–	> 50	> 50	–
CCN(CC)c1ccc(C(C(=O)NO)c2c(-c3ccc4ccccc4c3)[nH]c3ccccc23)cc1 (centres unmarked) [Compound 3aafo]	7.9 ± 0.7	4.1 ± 0.2	–	–	antiproliferative potency (GI50) [6]: single-digit micromolar
Cc1[nH]c2ccccc2c1C(C(=O)NO)c1ccccc1 (centres unmarked) [Compound 3aada]	–	–	> 50	> 50	–
CC(=O)O[C@H]1C(=O)[C@@]2(C)[C@H]([C@H](OC(=O)c3ccccc3)[C@]3(O)C[C@H](OC(=O)[C@H](O)[C@@H](NC(=O)c4ccccc4)c4ccccc4)C(C)=C1C3(C)C)[C@]1(OC(C)=O)CO[C@@H]1C[C@@H]2O [Taxol, reference compound]	–	–	–	–	GI50 [4]: 0.007 ± 0.001 µM; cells whose proliferation is not affected, A549 [3]: ca. 50%; cells whose proliferation is not affected, U87 (U87 glioblastoma cells): ca. 50%
O=C(NO)C(c1ccc(F)cc1)c1c(-c2ccc3ccccc3c2)[nH]c2ccccc12 (centres unmarked) [Compound 3aafg]	6.3 ± 1.1	18.2 ± 0.9	–	–	–
Cc1ccc(C(C(=O)NO)c2c(-c3ccc4ccccc4c3)[nH]c3ccccc23)cc1 (centres unmarked) [Compound 3aafm]	4.9 ± 0.2	6.3 ± 1.3	–	–	antiproliferative potency (GI50) [6]: single-digit micromolar
CCOc1ccc(C(C(=O)NO)c2c(-c3ccc4ccccc4c3)[nH]c3ccccc23)cc1 (centres unmarked) [Compound 3aafl]	8.5 ± 0.3	17.3 ± 0.2	–	–	–
Cn1c(-c2ccc3ccccc3c2)c(C(C(=O)NO)c2cccc(F)c2)c2ccccc21 (centres unmarked) [Compound 3bafc]	–	–	25.7 ± 1.4	36.8 ± 0.4	–
O=C(NO)C(c1cccc(F)c1)c1c(-c2ccc3ccccc3c2)[nH]c2ccccc12 (centres unmarked) [Compound 3aafc]	20.4 ± 0.1	32.9 ± 1.1	–	–	–
O=C(NO)C(c1ccccc1Br)c1c(-c2ccc3ccccc3c2)[nH]c2ccccc12 (centres unmarked) [Compound 3aafd]	2.7	13 ± 0.4	–	–	–
O=C(NO)C(c1ccc(Cl)c(Cl)c1)c1c(-c2ccc3ccccc3c2)[nH]c2ccccc12 (centres unmarked) [Compound 3aafi]	12.2 ± 1	31.7 ± 1.7	–	–	–
CCCCn1c(-c2ccc3ccccc3c2)c(C(C(=O)NO)c2ccc(C(C)C)cc2)c2ccccc21 (centres unmarked) [Compound 3cafe]	7.7 ± 0.4	6.6 ± 0.5	–	–	antiproliferative potency (GI50) [6]: single-digit micromolar
O=C(NO)C(c1ccccc1Cl)c1c(-c2ccc3ccccc3c2)[nH]c2ccccc12 (centres unmarked) [Compound 3aafh]	4.9 ± 0.1	31 ± 0.2	–	–	–
CCC(C)n1c(-c2ccc3ccccc3c2)c(C(C(=O)NO)c2ccccc2)c2ccccc21 (centres unmarked) [Compound 3dafa]	9.3 ± 0.3	9.8 ± 0.8	–	–	antiproliferative potency (GI50) [6]: single-digit micromolar
Cc1ccc2[nH]c(-c3ccc4ccccc4c3)c(C(C(=O)NO)c3ccccc3)c2c1 (centres unmarked) [Compound 3abfa]	–	–	> 50	> 50	–
O=C(NO)C(c1ccc([N+](=O)[O-])cc1)c1c(-c2ccccc2)[nH]c2ccccc12 (centres unmarked) [Compound 3aaab]	–	–	> 50	> 50	–
